Experimental data reported in patent publication US20100267031A1, “Method of Screening for RAGE-Amyloid-Beta Peptide Interaction Inhibiting Materials” (priority 2007, published 2010).

System: bEND.3 cells
Experiment: Comparison of passage through intercellular space (standard materials, with or without mannitol)
Assay type: in vitro ADME, mouse
Conditions: wells treated with mannitol (0.8 M) vs not treated; 20 min intervals over 120 min
Experimental: The cells were seeded on the inserts of 24-well Transwell plates and cultured for 5 days as described above examples. F—Na (10 μM, Sigma, Cat No. 28803), FD4 (1 mM, Sigma, Cat No. FD4), and FD40 (25 μM, Sigma, Cat No. FD40S), all labeled with fluorescence (FITC), were used as standard materials for intercellular passage comparison. Mannitol (0.8 M), known to interfere with the formation of intercellular tight junctions, was added to some wells while other wells were not treated with mannitol. Thereafter, the standard materials were added to the wells, followed by monitoring the fluorescence intensity in the lower compartment of the Transwell plates at regular intervals of 20 min over 120 min.
F—Na, FD4 and FD40 were 376 Da, 4,000 Da and 40,000 Da in size, respectively. When tight junctions are formed, the materials which can pass between cells are limited by the sizes thereof. Thus, the standard materials may be used as positive or negative controls. For example, when tight junctions are well formed, FD40 differs in passage through intercellular spaces from F—Na and FD4 due to difference in […] size.

## O=C([O-])c1ccccc1-c1c2ccc(=O)cc-2oc2cc([O-])ccc12.[Na+].[Na+] [F—Na]
  fluorescence intensity in the lower compartment: higher intensities were detected in the wells treated with mannitol
